“Also recorded” adds a separate entry of the source. Where a name gives a salt, the structure may show the parent alone.
Tests used:
[1] = Dynamic vapor sorption / isothermal sorption (hygroscopicity); type: physicochemical; settings: for weight change (isothermal sorption plot): between 0 to 80% RH; for weight change (DVS isothermal sorption plot): between 20 to 80% RH
Description: Dynamic vapor sorption data and isothermal sorption data were collected on TA Instruments Q5000 TGA. Method: A sample of 1 to 10 mg was placed in a platinum pan; the weight change of the sample during the change in relative humidity from 0% to 80% to 0% was measured.

[2] = Solid state stability experiment (XRD after storage at room temperature under dry condition); type: physicochemical; settings: for 1 day test results (solid form by XRD): stored 1 day; for 10 days test results (solid form by XRD): stored 10 days
Description: X-ray powder diffraction (XRPD): performed on Bruder D8 Advance diffractometer. Samples were tested at room temperature. Testing conditions: […] 3-40°, step size 0.02°, and speed 0.2 s/step.
Solid state stability experiment: Placed 20 mg of each of lasmiditan amorphous form of preparation Example 1, lasmiditan hydrochloride amorphous of Preparation Example 2, lasmiditan Form 1, lasmiditan Form 2, lasmiditan Form 3, lasmiditan hydrochloride Form A, lasmiditan hydrochloride Form B, lasmiditan hydrochloride Form C, and lasmiditan hydrochloride Form E of the present invention at room temperature under dry condition, took the samples out and analyzed by XRD at the corresponding time, their XRD pattern are shown in FIGS. 16-18 and FIGS. 46-50.

| SMILES | weight change (isothermal sorption plot) [1] [%] | weight change (DVS isothermal sorption plot) [1] [%] | 1 day test results (solid form by XRD) [2] | 10 days test results (solid form by XRD) [2] | weight change (isothermal sorption plot) ([1]; hydrochloride) [%] | 1 day test results (solid form by XRD) ([2]; hydrochloride) | 10 days test results (solid form by XRD) ([2]; hydrochloride) | further results |
| --- | --- | --- | --- | --- | --- | --- | --- | --- |
| CN1CCC(C(=O)c2cccc(NC(=O)c3c(F)cc(F)cc3F)n2)CC1 [Lasmiditan Form 1, 2,4,6-trifluoro-N-[6-(1-methyl-piperidine-4-carbonyl)pyridin-2-yl]-benzamide] | 0.1 | 0.1 | Form 1 | Form 1 | – | – | – | 10 days test results (solid form by XRD) ([2]; listed as lasmiditan Form 1): remained unchanged; also recorded: still remained their original forms |
| CN1CCC(C(=O)c2cccc(NC(=O)c3c(F)cc(F)cc3F)n2)CC1 [Lasmiditan Form 2, 2,4,6-trifluoro-N-[6-(1-methyl-piperidine-4-carbonyl)pyridin-2-yl]-benzamide] | 0.1 | 0.1 | Form 2 | Form 2 | – | – | – | 10 days test results (solid form by XRD) ([2]; listed as lasmiditan Form 2): still remained their original forms; also recorded: remained unchanged |
| CN1CCC(C(=O)c2cccc(NC(=O)c3c(F)cc(F)cc3F)n2)CC1 [Lasmiditan Form 3, 2,4,6-trifluoro-N-[6-(1-methyl-piperidine-4-carbonyl)pyridin-2-yl]-benzamide] | 0.7 | – | Form 3 | Form 3 | – | – | – | 10 days test results (solid form by XRD) ([2]; listed as lasmiditan Form 3): still remained their original forms; also recorded: remained unchanged |
| CN1CCC(C(=O)c2cccc(NC(=O)c3c(F)cc(F)cc3F)n2)CC1 [Lasmiditan amorphous form, 2,4,6-trifluoro-N-[6-(1-methyl-piperidine-4-carbonyl)pyridin-2-yl]-benzamide, reference compound] | 9.5 | 9.5 | began to crystallize | – | – | – | – | weight change (isothermal sorption plot) ([1]; listed as Preparation Example 1): 9.5% |
| CN1CCC(C(=O)c2cccc(NC(=O)c3c(F)cc(F)cc3F)n2)CC1 [Lasmiditan hydrochloride Form A, lasmiditan hydrochloride] | – | – | – | – | 0.1 | Form A | Form A | 10 days test results (solid form by XRD) ([2]; listed as lasmiditan hydrochloride Form A, hydrochloride): remained unchanged; also recorded: still remained their original forms |
| CN1CCC(C(=O)c2cccc(NC(=O)c3c(F)cc(F)cc3F)n2)CC1 [Lasmiditan hydrochloride Form B, lasmiditan hydrochloride] | – | – | – | – | 4.2 | Form B | Form B | 10 days test results (solid form by XRD) ([2]; listed as lasmiditan hydrochloride Form B, hydrochloride): remained unchanged; also recorded: still remained their original forms |
| CN1CCC(C(=O)c2cccc(NC(=O)c3c(F)cc(F)cc3F)n2)CC1 [Lasmiditan hydrochloride Form C, lasmiditan hydrochloride] | – | – | – | – | 0.9 | Form C | Form C | 10 days test results (solid form by XRD) ([2]; listed as lasmiditan hydrochloride Form C, hydrochloride): remained unchanged; also recorded: still remained their original forms |
| CN1CCC(C(=O)c2cccc(NC(=O)c3c(F)cc(F)cc3F)n2)CC1 [Lasmiditan hydrochloride Form E, lasmiditan hydrochloride] | – | – | – | – | – | Change to Form A | – | 1 day test results (solid form by XRD) ([2]; listed as lasmiditan hydrochloride Form E, hydrochloride): converted to Form A |
| CN1CCC(C(=O)c2cccc(NC(=O)c3c(F)cc(F)cc3F)n2)CC1 [Lasmiditan hydrochloride amorphous form, lasmiditan hydrochloride, reference compound] | – | – | – | – | 8.1 | began to crystallize | – | weight change (isothermal sorption plot) ([1]; listed as Preparation Example 2, hydrochloride): 8.1% |
